Test results reported in article PMC6567057, “Pharmacokinetic, metabolic stability, plasma protein binding and CYP450s inhibition/induction assessment studies of N-(2-pyridylmethyl)-2-hydroxiymethyl-1-pyrrolidinyl-4-(3-chloro-4-methoxy-benzylamino)-5-pyrimidine-carboxamide as potential type 5 phosphodiesterase inhibitors” (Animal Cells and Systems, 2019).
Like-named read-outs stand apart in the source and are kept apart here.

Columns and labels:
rabbit model = assay: Preliminary efficacy experiment of rabbit model in vivo; settings: compared with avanafil, data not published
[1] = Plasma protein binding by equilibrium dialysis (dog); assay type: in vitro ADME, Beagle dog; settings: beagle
Procedure: (§1) The phosphate buffer (100 mM) and sodium hydroxide solution (1.0 M) were prepared in deionized water. […] PPB was determined by equilibrium dialysis method. An aliquot (150 μL) of NHPPC spiked plasma and phosphate buffer (pH 7.4) was added into the donor side and the receiver side of each designated well. The plate was covered with adhesive sealing film to prevent evaporation and placed in a water-bath shaker kept at 37°C for 6 h with a rate of 50 rpm. […] At the end of 6 h, aliquots were taken from each side of each well (n = 3) and kept in a −20°C freezer prior to analysis. The stability, device recovery and PPB were calculated using the following equations: Remaining at 6 h (%)=C6h/C0h×100%, Device recovery (%)=CDonor+CReceiver/C6h×100%, PPB (%)=CDonor−CReceiver/CDonor×100%.

dog plasma proteins = assay: as above; assay type: in vitro ADME, Beagle dog; settings: dog plasma, mean of 0.2 and 1 µM
Procedure: as §1

[2] = Stability in plasma, 6 h incubation at 37°C (human); assay type: in vitro ADME
Procedure: as §1

rat plasma proteins = assay: Plasma protein binding by equilibrium dialysis (rat); assay type: in vitro ADME, Sprague–Dawley rat; settings: rat plasma, mean of 0.2 and 1 µM
Procedure: as §1

[3] = as above; assay type: in vitro ADME, Sprague–Dawley rat; settings: Sprague-Dawley
Procedure: as §1

[4] = In vitro metabolic stability in dog liver microsomes; assay type: in vitro ADME; settings: for remaining at 1 h, 1 µM: liver microsomes, pH 7.4, dog liver microsomes, 60 min, read-out: percent remaining
Procedure: The phosphate buffer (pH 7.4, 100 mM) and (300 mM) were prepared in deionized water. NADP and IA were dissolved in phosphate buffer and MgCl2 solution and then added 20 μL IDH (18 units/mg protein) and mixed. NHPPC (1 mM) and positive control drug were prepared by dilution using DMSO and then the NHPPC and positive control drug working solution (50 μM) were obtained by dilution using methanol: H2O (1:1, v/v) mixture. Pooled human, rat and dog liver microsomes were added to phosphate buffer pH7.4 to a concentration 20 mg/mL. NHPPC was incubated with liver microsomes. The incubation solution of the final reaction conditions contained 50 mM potassium phosphate buffer (pH 7.4), 0.5 mg protein/mL microsomes, 3 mM MgCl2, 2 mM NADPH and 1 μM NHPPC or positive control drug in a final volume of 100 μL. In sample and positive control groups, NADPH was added into the incubation solutions. In the negative control group, water (the replacement of NADPH) was added into the incubation solutions. Samples were incubated aerobically in a shaking water bath at 37°C and the reaction was terminated by adding 300 μL of ice cold acetonitrile (contain 100 ng/mL IS) at different interval 0, 5, 10, 20, 30 and 60 min. While positive control and negative control were incubated aerobically in a shaking water bath at 37°C for 0 and 60 min, respectively. NHPPC and control concentrations were determined by LC-MS/MS at each time point (n = 3). Calculation of t1/2 and CLint was performed by using following equations, where K is the elimination rate constant (min^−1) and QH is hepatic blood flow (mL/min/kg). t1/2=0.693/KCLint,in vitro=VD×KVD=Volume of reaction mixture(mL)/mg of protein per reation.
Hepatic intrinsic clearance was estimated by using the scaling factors and calculated by using the following equation (Lave et al. [1997]). CLint,in vivo=CLint×mg microsomal protein per liver×g liver per kg body weight, Cint,H=CLint,in vivo×QH/CLint,in vivo+QH,EH=CLint,H/QH.

[5] = Stability in plasma, 6 h incubation at 37°C (dog); assay type: in vitro ADME; settings: beagle
Procedure: as §1

CYP1A2 = assay: CYP induction in human primary hepatocytes; assay type: in vitro ADME; settings: CYP1A2, human primary hepatocytes of three batches, 0.10, 1.00 or 10.0 μM, 72 h
Procedure: (§2) The hepatocytes were seeded on a collagenated 48-well plate for 24 h in an incubator at 37°C (moisturized, with 5% CO2). The hepatocytes were then incubated with the test article thereafter. The stock solutions of omeprazole (100 mM), rifampin (20.0 mM), testosterone (200 mM), phenacetin (100 mM) and NHPPC (50.0 mM) were prepared in DMSO, and were diluted using the cell culture medium. The DMSO content in the final solutions was 0.10%, the medium containing 0.10% DMSO was used as the blank control. The cells were co-incubated with the positive control inducers or NHPPC for 72 h and during the incubation the medium was changed every day. After the incubation, the medium was discarded and replaced with 200 μL phenol red-free culture medium containing 100 μM phenacetin (CYP1A2 probe substrate) or 200 μM testosterone (CYP3A4 probe substrate). After the incubation in the presence of the probe substrates at 37°C for 1 h, the supernatants were collected and stored at −80°C until analysis. All incubations were also conducted in triplicate. The generated metabolites of the CYP1A2 and CYP3A4 probe substrates were analyzed by LC/MS/MS methods. The induction effects of the positive control inducers and NHPPC were assessed by the amount of metabolites formed in the induced and uninduced hepatocytes. The percent induction of positive control was calculated using the following equation. […]

CYP3A4 = assay: CYP induction in human primary hepatocytes; assay type: in vitro ADME; settings: CYP3A4, human primary hepatocytes of three batches, 0.10, 1.00 or 10.0 μM, 72 h
Procedure: as §2

[6] = 0.2 µM, n = 3, read-out: Mean drug remaining %
[7] = 1 µM, n = 3, read-out: Mean drug remaining %
[8] = mean of 0.2 and 1 µM, read-out: Mean drug remaining %

Question: For COc1ccc(CNc2nc(N3CCC[C@H]3CO)ncc2C(=O)NCc2ccccn2)cc1Cl [NHPPC, N-(2-pyridylmethyl)-2-hydroxiymethyl-1-pyrrolidinyl-4-(3-chloro-4-methoxy-benzylamino)-5-pyrimidine-carboxamide], which preliminary efficacy (rabbit model) is on record?
Answer: stronger than avanafil

Question: And the fraction unbound at 6 h, 0.2 µM ([1]; dog, plasma, pH 7.4, dog plasma, 0.2 µM, equilibrium dialysis 6 h, read-out: Mean PPB % (converted))?
Answer: 0.008

Question: And the fraction unbound at 6 h, 1 µM ([1]; dog, plasma, pH 7.4, dog plasma, 1 µM, equilibrium dialysis 6 h, read-out: Mean PPB %)?
Answer: 0.001 ± 3.8e-06

Question: What about the recovery at 6 h, 0.2 μM ([1]; pH 7.4, dog plasma, equilibrium dialysis, n = 3, read-out: Mean device recovery %) of the same compound?
Answer: 95.7 ± 0.3%

Question: And the “Mean PPB %” value (dog plasma proteins)?
Answer: 99.6 ± 0.26%

Question: And the remaining at 6 h, 0.2 µM [2, 6]?
Answer: 99.8 ± 1.37%

Question: And the remaining at 6 h, 1 µM [2, 7]?
Answer: 102 ± 1.5%

Question: What about the remaining at 6 h [2, 8] of the same compound?
Answer: 101 ± 1.23%

Question: And the “Mean PPB %” value (rat plasma proteins)?
Answer: 96.2 ± 0.18%

Question: And the recovery at 6 h, 0.2 μM ([3]; pH 7.4, rat plasma, equilibrium dialysis, n = 3, read-out: Mean device recovery %)?
Answer: 98.6 ± 0.13%

Question: And the fraction unbound at 6 h, 0.2 µM ([3]; rat, plasma, pH 7.4, rat plasma, 0.2 µM, equilibrium dialysis 6 h, read-out: Mean PPB % (converted))?
Answer: 0.043

Question: And the fraction unbound at 6 h, 1 µM ([3]; rat, plasma, pH 7.4, rat plasma, 1 µM, equilibrium dialysis 6 h, read-out: Mean PPB % (converted))?
Answer: 0.033

Question: What about the fraction unbound at 6 h ([3]; rat, plasma, pH 7.4, rat plasma, mean of 0.2 and 1 µM, read-out: Mean PPB %) of the same compound?
Answer: < 0.05

Question: What about the remaining at 1 h, 1 µM ([4]; dog, in the presence of NADPH, 1 μM) of the same compound?
Answer: 0.8%

Question: What about the remaining at 1 h, 1 µM ([4]; dog, without NADPH regenerating system) of the same compound?
Answer: 98.4%

Question: And the CLH ([4]; dog, scaled from liver microsomes)?
Answer: 25.3 mL/min/kg

Question: What about the half-life at 1 µM ([4]; liver microsomes (pooled), pH 7.4, dog liver microsomes) of the same compound?
Answer: 8.2 min

Question: And the microsomal CLint at 1 µM ([4]; liver microsomes (pooled), pH 7.4, dog liver microsomes, read-out: CLint, ivtro)?
Answer: 120 µL/min/mg

Question: And the k el at 1 µM ([4]; pH 7.4, dog liver microsomes, read-out: Ke (converted))?
Answer: 0.0014 s⁻¹

Question: What about the remaining at 6 h, 0.2 µM [5, 6] of the same compound?
Answer: 99.6 ± 0.53%

Question: What about the remaining at 6 h, 1 µM [5, 7] of the same compound?
Answer: 100.4 ± 0.98%

Question: And the remaining at 6 h [5, 8]?
Answer: 100 ± 1.24%

Question: What about the “percent induction of positive control” value (CYP1A2) of the same compound?
Answer: less than 40%

Question: What about the “percent induction of positive control” value (CYP3A4) of the same compound?
Answer: less than 40%
